Experimental data as given in US20250353853A1, “FLAVIVIRUS INHIBITORS” (IRBM S.P.A., priority 2022, published 2025).
Read-outs that look alike come from different tables or passages of the source.

Columns and labels:
[1] = system: ZIKV replicon in Vero cells; assay: ZIKV Replication Inhibition Assay (replicon, NanoLuc); conditions: 72 h, read-out: Zika Replicon EC50
[2] = molecular target: West Nile Virus (WNV) NS2B-NS3 protease (West Nile virus (WNV), UniProt P06935); assay: WNV Protease Inhibition Assay; format: biochemical
West Nile Virus (WNV) NS2B-NS3 protease, sequence (P06935 1502-1679 limits assumed): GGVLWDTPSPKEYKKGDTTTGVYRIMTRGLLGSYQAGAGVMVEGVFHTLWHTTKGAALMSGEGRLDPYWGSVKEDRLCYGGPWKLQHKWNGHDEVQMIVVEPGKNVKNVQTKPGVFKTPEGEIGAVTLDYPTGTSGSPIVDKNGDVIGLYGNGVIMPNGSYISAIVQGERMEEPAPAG
West Nile Virus (WNV) NS2B-NS3 protease, sequence (P06935 1371-1501 partner limits assumed): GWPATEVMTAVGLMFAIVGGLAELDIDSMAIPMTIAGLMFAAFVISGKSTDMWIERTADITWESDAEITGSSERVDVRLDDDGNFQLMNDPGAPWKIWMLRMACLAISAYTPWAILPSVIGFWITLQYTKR
Source text: WNV Protease Inhibition Assay

[3] = 2 nM protease, 10 μM pERTKR-AMC substrate, read-out: WNV Protease IC50

Molecule `O=C([N-]c1c[n+](Cc2ccc(-c3c(F)cncc3F)cn2)no1)Nc1cccc(C(F)(F)F)c1` [Example 170, (3-((3′,5′-difluoro-[3,4′-bipyridin]-6-yl)methyl)-1,2,3-oxadiazol-3-ium-5-yl)((3-(trifluoromethyl)phenyl)carbamoyl)amide] has an EC50 ([1]; Zika virus, Vero) of less than 100 nM and an IC50 [2] of 100 to 1000 nM.

Molecule `Cc1ccncc1-c1ccc(C[n+]2cc([N-]C(=O)Nc3cncc(C(F)(F)F)c3)on2)nc1` [Example 149, (3-((4′-methyl-[3,3′-bipyridin]-6-yl)methyl)-1,2,3-oxadiazol-3-ium-5-yl)((5-(trifluoromethyl)pyridin-3-yl)carbamoyl)amide] has an EC50 ([1]; Zika virus, Vero) of 100 to 1000 nM and an IC50 [2] of 100 to 1000 nM.

In the case of `C[C@@H](c1ccc(Br)cc1)[n+]1cc([N-]C(=O)Nc2cccc(C(F)(F)F)c2)on1` [Example 69, (S)-(3-(1-(4-bromophenyl)ethyl)-1,2,3-oxadiazol-3-ium-5-yl)((3-(trifluoromethyl)phenyl)carbamoyl)amide], the EC50 ([1]; Zika virus, Vero) is reported as 100 to 1000 nM and the IC50 [2] is reported as 1000 to 20000 nM.

`Cc1cnncc1-c1ccc(C[n+]2cc([N-]C(=O)Nc3cccc(C(F)(F)F)c3)on2)nc1` [Example 129, (3-((5-(5-methylpyridazin-4-yl)pyridin-2-yl)methyl)-1,2,3-oxadiazol-3-ium-5-yl)((3-(trifluoromethyl)phenyl)carbamoyl)amide] gave an EC50 ([1]; Zika virus, Vero) of 100 to 1000 nM and an IC50 [2, 3] of less than 100 nM.

`Cc1ncncc1-c1ccc(C[n+]2cc([N-]C(=O)Nc3cccc(C(F)(F)F)c3)on2)cc1` [Example 60, (3-(4-(4-methylpyrimidin-5-yl)benzyl)-1,2,3-oxadiazol-3-ium-5-yl)((3-(trifluoromethyl)phenyl)carbamoyl)amide] gave an EC50 ([1]; Zika virus, Vero) of less than 100 nM and an IC50 [2, 3] of less than 100 nM.

`O=C([N-]c1c[n+]([C@@H]2CCC[C@H]2c2ccccc2)no1)Nc1cccc(C(F)(F)F)c1` [Example 59, (3-((1R,2S)-2-phenylcyclopentyl)-1,2,3-oxadiazol-3-ium-5-yl)((3-(trifluoromethyl)phenyl)carbamoyl)amide] gave an EC50 ([1]; Zika virus, Vero) of 100 to 1000 nM and an IC50 [2] of 1000 to 20000 nM.

With `Cc1cc(NC(=O)[N-]c2c[n+](Cc3ccc(-c4c(C)noc4C)cn3)no2)cc(C(F)(F)F)c1` [Example 156, (3-((5-(3,5-dimethylisoxazol-4-yl)pyridin-2-yl)methyl)-1,2,3-oxadiazol-3-ium-5-yl)((3-methyl-5-(trifluoromethyl)phenyl)carbamoyl)amide] the EC50 ([1]; Zika virus, Vero) was 100 to 1000 nM and the IC50 [2] was 1000 to 20000 nM.

`Cc1noc(C)c1-c1ccc(C[n+]2cc([N-]C(=O)Nc3ncc(C(F)(F)F)s3)on2)nc1` [Example 166, (3-((5-(3,5-dimethylisoxazol-4-yl)pyridin-2-yl)methyl)-1,2,3-oxadiazol-3-ium-5-yl)((5-(trifluoromethyl)thiazol-2-yl)carbamoyl)amide] was tested, and the EC50 ([1]; Zika virus, Vero) was less than 100 nM and the IC50 [2] was 100 to 1000 nM.

`Cc1ncnc(C)c1-c1ccc(C[n+]2cc([N-]C(=O)Nc3cccc(C(F)(F)F)c3)on2)nn1` [Example 184, (3-((6-(4,6-dimethylpyrimidin-5-yl)pyridazin-3-yl)methyl)-1,2,3-oxadiazol-3-ium-5-yl)((3-(trifluoromethyl)phenyl)carbamoyl)amide] showed an EC50 ([1]; Zika virus, Vero) of 100 to 1000 nM and an IC50 [2] of 100 to 1000 nM.

`Cc1ncnc(C)c1-c1ccc(C[n+]2cc([N-]C(=O)Nc3ccnc(C(F)(F)F)c3)on2)cc1` [Example 185, (3-(4-(4,6-dimethylpyrimidin-5-yl)benzyl)-1,2,3-oxadiazol-3-ium-5-yl)((2-(trifluoromethyl)pyridin-4-yl)carbamoyl)amide] showed an EC50 ([1]; Zika virus, Vero) of less than 100 nM and an IC50 [2, 3] of less than 100 nM.

In the case of `Cc1noc(C)c1-c1ccc([C@@H](C)[n+]2cc([N-]C(=O)Nc3ccnc(C(F)(F)F)c3)on2)cc1` [Example 189, (R)-(3-(1-(4-(3,5-dimethylisoxazol-4-yl)phenyl)ethyl)-1,2,3-oxadiazol-3-ium-5-yl)((2-(trifluoromethyl)pyridin-4-yl)carbamoyl)amide], the EC50 ([1]; Zika virus, Vero) is reported as 100 to 1000 nM and the IC50 [2] is reported as 100 to 1000 nM.

Molecule `O=C([N-]c1c[n+](Cc2ccc(-c3c(Cl)ncnc3Cl)cn2)no1)Nc1cccc(C(F)(F)F)c1` [Example 180, (3-((5-(4,6-dichloropyrimidin-5-yl)pyridin-2-yl)methyl)-1,2,3-oxadiazol-3-ium-5-yl)((3-(trifluoromethyl)phenyl)carbamoyl)amide] has an EC50 ([1]; Zika virus, Vero) of 1000 to 20000 nM and an IC50 [2, 3] of less than 100 nM.

`COc1nccc(C)c1-c1ccc(C[n+]2cc([N-]C(=O)Nc3cccc(C(F)(F)F)c3)on2)nc1` [Example 159, (3-((2′-methoxy-4′-methyl-[3,3′-bipyridin]-6-yl)methyl)-1,2,3-oxadiazol-3-ium-5-yl)((3-(trifluoromethyl)phenyl)carbamoyl)amide] gave an EC50 ([1]; Zika virus, Vero) of less than 100 nM and an IC50 [2] of 100 to 1000 nM.

Molecule `COc1cc(-c2ccc(C[n+]3cc([N-]C(=O)Nc4cccc(C(F)(F)F)c4)on3)cc2)ccn1` [Example 63, (3-(4-(2-methoxypyridin-4-yl)benzyl)-1,2,3-oxadiazol-3-ium-5-yl)((3-(trifluoromethyl)phenyl)carbamoyl)amide] has an EC50 ([1]; Zika virus, Vero) of 100 to 1000 nM and an IC50 [2] of 100 to 1000 nM.

With `Cc1n[nH]c(C)c1-c1ccc(C[n+]2cc([N-]C(=O)Nc3cccc(C(F)(F)F)c3)on2)nc1` [Example 151, (3-((5-(3,5-dimethyl-1H-pyrazol-4-yl)pyridin-2-yl)methyl)-1,2,3-oxadiazol-3-ium-5-yl)((3-(trifluoromethyl)phenyl)carbamoyl)amide] the EC50 ([1]; Zika virus, Vero) was 100 to 1000 nM and the IC50 [2] was 100 to 1000 nM.

`Cc1ccc(NC(=O)[N-]c2c[n+](Cc3ccc(-c4c(C)noc4C)cn3)no2)cc1C(F)(F)F` [Example 158, (3-((5-(3,5-dimethylisoxazol-4-yl)pyridin-2-yl)methyl)-1,2,3-oxadiazol-3-ium-5-yl)((4-methyl-3-(trifluoromethyl)phenyl)carbamoyl)amide] was tested, and the EC50 ([1]; Zika virus, Vero) was less than 100 nM and the IC50 [2] was 100 to 1000 nM.

`Cc1cnn(C)c1-c1ccc(C[n+]2cc([N-]C(=O)Nc3ccnc(C(F)(F)F)c3)on2)nc1` [Example 175, (3-((5-(1,4-dimethyl-1H-pyrazol-5-yl)pyridin-2-yl)methyl)-1,2,3-oxadiazol-3-ium-5-yl)((2-(trifluoromethyl)pyridin-4-yl)carbamoyl)amide] gave an EC50 ([1]; Zika virus, Vero) of less than 100 nM and an IC50 [2, 3] of less than 100 nM.

`Cc1ncn(C)c1-c1ccc(C[n+]2cc([N-]C(=O)Nc3cncc(C(F)(F)F)c3)on2)nc1` [Example 140, (3-((5-(1,4-dimethyl-1H-imidazol-5-yl)pyridin-2-yl)methyl)-1,2,3-oxadiazol-3-ium-5-yl)((5-(trifluoromethyl)pyridin-3-yl)carbamoyl)amide] showed an EC50 ([1]; Zika virus, Vero) of 1000 to 20000 nM and an IC50 [2] of 100 to 1000 nM.

Work on `Cc1noc(C)c1-c1ccc(C[n+]2cc([N-]C(=O)Nc3ccnc(C(F)(F)F)c3)on2)cc1` [Example 186, (3-(4-(3,5-dimethylisoxazol-4-yl)benzyl)-1,2,3-oxadiazol-3-ium-5-yl)((2-(trifluoromethyl)pyridin-4-yl)carbamoyl)amide] yielded an EC50 ([1]; Zika virus, Vero) of less than 100 nM and an IC50 [2, 3] of less than 100 nM.

With `Cc1cnccc1-c1ccc(C[n+]2cc([N-]C(=O)Nc3cccc(C(F)(F)F)c3)on2)nc1` [Example 163, (3-((3′-methyl-[3,4′-bipyridin]-6-yl)methyl)-1,2,3-oxadiazol-3-ium-5-yl)((3-(trifluoromethyl)phenyl)carbamoyl)amide] the EC50 ([1]; Zika virus, Vero) was less than 100 nM and the IC50 [2] was 100 to 1000 nM.

Molecule `COc1ncc(-c2cccc(C[n+]3cc([N-]C(=O)Nc4cccc(C(F)(F)F)c4)on3)c2)cn1` [Example 53, (3-(3-(2-methoxypyrimidin-5-yl)benzyl)-1,2,3-oxadiazol-3-ium-5-yl)((3-(trifluoromethyl)phenyl)carbamoyl)amide] has an EC50 ([1]; Zika virus, Vero) of 100 to 1000 nM and an IC50 [2] of 100 to 1000 nM.

With `COc1ncc(-c2ccc(C[n+]3cc([N-]C(=O)Nc4cncc(C(F)(F)F)c4)on3)cc2)cn1` [Example 58, (3-(4-(2-methoxypyrimidin-5-yl)benzyl)-1,2,3-oxadiazol-3-ium-5-yl)((5-(trifluoromethyl)pyridin-3-yl)carbamoyl)amide] the EC50 ([1]; Zika virus, Vero) was 100 to 1000 nM and the IC50 [2, 3] was less than 100 nM.

Work on `Cc1noc(C)c1-c1ccc(C[n+]2cc([N-]C(=O)Nc3cccc(C(F)(F)F)c3)on2)nn1` [Example 173, (3-((6-(3,5-dimethylisoxazol-4-yl)pyridazin-3-yl)methyl)-1,2,3-oxadiazol-3-ium-5-yl)((3-(trifluoromethyl)phenyl)carbamoyl)amide] yielded an EC50 ([1]; Zika virus, Vero) of less than 100 nM and an IC50 [2, 3] of less than 100 nM.

`Cc1nn(C)c(C)c1-c1ccc(C[n+]2cc([N-]C(=O)Nc3cncc(C(F)(F)F)c3)on2)nc1` [Example 147, ((5-(trifluoromethyl)pyridin-3-yl)carbamoyl)(3-((5-(1,3,5-trimethyl-1H-pyrazol-4-yl)pyridin-2-yl)methyl)-1,2,3-oxadiazol-3-ium-5-yl)amide] gave an EC50 ([1]; Zika virus, Vero) of 100 to 1000 nM and an IC50 [2, 3] of less than 100 nM.

With `Cc1noc(C)c1-c1ccc([C@H](C)[n+]2cc([N-]C(=O)Nc3ccnc(C(F)(F)F)c3)on2)cc1` [Example 191, (S)-(3-(1-(4-(3,5-dimethylisoxazol-4-yl)phenyl)ethyl)-1,2,3-oxadiazol-3-ium-5-yl)((2-(trifluoromethyl)pyridin-4-yl)carbamoyl)amide] the EC50 ([1]; Vero cell line with stable ZIKV replicon, Nano-Glo) was 100 to 1000 nM and the IC50 ([2]; read-out: WNV Protease IC50, 2 nM protease, 10 μM pERTKR-AMC substrate) was 100 to 1000 nM.

For `Cc1ncnc(C)c1-c1ccc([C@@H](C)[n+]2cc(NC(=O)Nc3ccnc(C(F)(F)F)c3)on2)cc1` [Example 188, (R)-(3-(1-(4-(4,6-dimethylpyrimidin-5-yl)phenyl)ethyl)-1,2,3-oxadiazol-3-ium-5-yl)((2-(trifluoromethyl)pyridin-4-yl)carbamoyl)amide], the EC50 ([1]; Zika virus, Vero) was less than 100 nM and the IC50 [2] was less than 100 nM.

For `O=C([N-]c1c[n+](Cc2cccc(-c3cccnc3)c2)no1)Nc1cccc(C(F)(F)F)c1` [Example 51, (3-(3-(pyridin-3-yl)benzyl)-1,2,3-oxadiazol-3-ium-5-yl)((3-(trifluoromethyl)phenyl)carbamoyl)amide], the EC50 ([1]; Zika virus, Vero) was 100 to 1000 nM and the IC50 [2] was 100 to 1000 nM.

`O=C([N-]c1c[n+](Cc2ccc(-c3cncnc3)cc2)no1)Nc1cncc(C(F)(F)F)c1` [Example 57, (3-(4-(pyrimidin-5-yl)benzyl)-1,2,3-oxadiazol-3-ium-5-yl)((5-(trifluoromethyl)pyridin-3-yl)carbamoyl)amide] gave an EC50 ([1]; Zika virus, Vero) of less than 100 nM and an IC50 [2, 3] of less than 100 nM.
